Assay results as given in US20040023994A1 (priority 2002, published 2004).
Where two headings read alike, the source gives them in different places.

Key:
[1] = system: HL-60(TB); assay: cells; conditions: Homo sapiens, HL-60, 48 h
[2] = system: DU-145; format: cell-based; conditions: DU-145, Prostate, 48 h
[3] = system: UACC-62; conditions: for CC50: read-out: LC50
[4] = system: TK-10; format: cell-based; conditions: TK-10, Renal, 48 h
[5] = system: MALME-3M
[6] = system: NCI-H522; conditions: NCI-H522, Non-Small Cell Lung, 48 h
[7] = Homo sapiens, read-out: LC50 (the source's name)

SMILES	GI50 [1] [nM]	CC50 ([1]; read-out: LC50) [nM]	TGI [2] [nM]	GI50 ([2]; Homo sapiens) [nM]	CC50 [2, 7] [nM]	GI50 ([3]; Homo sapiens, UACC-62, 48 h) [nM]	CC50 ([3]; Homo sapiens, UACC-62, 48 h) [nM]	TGI ([3]; UACC-62, Melanoma, 48 h) [nM]	GI50 ([4]; Homo sapiens) [nM]	CC50 [4, 7] [nM]	TGI [4] [nM]	GI50 ([5]; Melanoma, 48 h) [nM]	TGI ([5]; Melanoma, 48 h) [nM]	CC50 ([5]; read-out: LC50, Melanoma, 48 h) [nM]	GI50 ([3]; UACC-62, Melanoma, 48 h) [nM]	CC50 ([3]; UACC-62, Melanoma, 48 h) [nM]	GI50 [6] [nM]	TGI [6] [nM]	CC50 ([6]; read-out: LC50) [nM]
CC(=O)C=CSc1ncnc2nc[nH]c12 [cis-AVTP, 6-(2-acetylvinylthio) purine]	490	> 100000	3970	1320	24400	230	5880	1100	30	13900	640								
CC(=O)C=CSc1nc(N)nc2nc[nH]c12 [trans-AVTG, 6-(2-acetylvinylthio) guanine]								930				370	3070	29300	280	24900	20	50	8280
